Measured values taken from patent US20250000843A1, “LIGNAN-INSPIRED COMPOUNDS, METHODS OF MAKING, AND USING THEREOF” (IOWAIBO, INC., priority 2023, published 2025).

System: MCF7 (human breast cancer cell line)
Assay: MTT toxicity assay in MCF7 breast cancer cells
Type: cell-based
Description: Toxicity of the dibenzyl butyl lactone derivative (3-[(3,4-dimethoxyphenyl)cyclopentyl], 4-[(3-hydroxyphenol)methyl]oxolan-2-one) in breast cancer cells was evaluated using MTT assay. The MTT toxicity test is a colorimetric assay to measure cells' metabolic activity by serving as a substrate of cellular enzymes that reduce the tetrazolium orange dye, MTT (3-(4,5-Dimethylthiazol-2-yl)-2,5-diphenyltetrazolium bromide) to its insoluble, formazan, giving a purple color. The rate of conversion is directly proportional to cells' mitochondrial metabolic activity via NAD (P) H-dependent cellular oxidoreductase enzymes and serves as a surrogate marker of cell viability.
Cultures of MCF7 (human breast cancer cell line) working stock (5 passages) were established under standard culture conditions in Eagle's minimum essential medium (EMEM). EMEM was supplemented with 10% fetal bovine serum (FBS), 2 mM Glutamine and Pen/Strep, and Penicillin 0.01 mg/ml.
Cells previously expanded were seeded in 96 well plates at 1.9×10^5 and 9.6×10^4 cells/plate for 24- and 72-hours treatment respectively. This concentration is known to show the best window for the MTT assay, with better sensitivity and low variability.
5 mg of powdered enterolactone, dibenzyl butyl lactone derivative enantiomer A, and dibenzyl butyl lactone derivative enantiomer B were dissolved in 500 μl of DMSO at room temperature. Eight-point curves, ⅓ dilutions (highest concentration 125 μM), were prepared.
Twenty-four hours following the seeding process, the cells were washed once with phosphate buffered saline (PBS) and treated with the respective compounds in cell culture media. Each condition was tested in triplicates. For positive and negative controls, 8 mM methyl methane sulfonate (MMS) and DMSO 100% were used respectively.
Following compound addition, the plates were incubated for 24 and 72 hours. After the treatment period, cells were washed twice with PBS and media was replaced with MTT reagent at 0.5 mg/ml in Dulbecco's modified Eagle medium (DMEM) without phenol red. The plates were gently shaken and incubated for 4 hours. After the incubation the medium was removed and replaced by DMSO. The plates were gently shaken to solubilize the formazan crystals. Absorbance was measured using an Envision multiplate reader at a wavelength of 570 nm.
Eight serial dilutions were prepared (125.00, 41.67, 13.89, 4.63, 1.54, 0.51, 0.17 and 0.06 µM to evaluate the compounds (in triplicate). MTT results showing cell death values above 20% are considered as having a significant toxic effect.
MTT assay results are shown in Tables 2-7 and expressed as the percentage of cell death after treatment.

O=C1OC[C@H](Cc2cccc(O)c2)[C@H]1Cc1cccc(O)c1 (racemic) [Enterolactone, reference compound]
Cell death #1 (%) (MCF7, 24 hours, 0.06 μM): −11.97%
Cell death #2 (%) (MCF7, 24 hours, 0.06 μM): −41.20%
Cell death #3 (%) (MCF7, 24 hours, 0.06 μM): −33.13%
Cell death (%) MEAN (MCF7, 24 hours, 0.06 μM): −28.77%
Cell death #1 (%) (MCF7, 24 hours, 0.17 μM): −14.66%
Cell death #2 (%) (MCF7, 24 hours, 0.17 μM): −12.36%
Cell death #3 (%) (MCF7, 24 hours, 0.17 μM): −5.43%
Cell death (%) MEAN (MCF7, 24 hours, 0.17 μM): −10.82%
Cell death #1 (%) (MCF7, 24 hours, 0.51 μM): 2.26%
Cell death #2 (%) (MCF7, 24 hours, 0.51 μM): −23.51%
Cell death #3 (%) (MCF7, 24 hours, 0.51 μM): −19.28%
Cell death (%) MEAN (MCF7, 24 hours, 0.51 μM): −13.51%
Cell death #1 (%) (MCF7, 24 hours, 1.54 μM): −16.20%
Cell death #2 (%) (MCF7, 24 hours, 1.54 μM): −16.97%
Cell death #3 (%) (MCF7, 24 hours, 1.54 μM): −21.20%
Cell death (%) MEAN (MCF7, 24 hours, 1.54 μM): −18.13%
Cell death #1 (%) (MCF7, 24 hours, 4.63 μM): −5.05%
Cell death #2 (%) (MCF7, 24 hours, 4.63 μM): −19.28%
Cell death #3 (%) (MCF7, 24 hours, 4.63 μM): −25.82%
Cell death (%) MEAN (MCF7, 24 hours, 4.63 μM): −16.71%
Cell death #1 (%) (MCF7, 24 hours, 13.89 μM): −10.05%
Cell death #2 (%) (MCF7, 24 hours, 13.89 μM): −8.13%
Cell death #3 (%) (MCF7, 24 hours, 13.89 μM): −3.51%
Cell death (%) MEAN (MCF7, 24 hours, 13.89 μM): −7.23%
Cell death #1 (%) (MCF7, 24 hours, 41.67 μM): −30.05%
Cell death #2 (%) (MCF7, 24 hours, 41.67 μM): −30.43%
Cell death #3 (%) (MCF7, 24 hours, 41.67 μM): −40.43%
Cell death (%) MEAN (MCF7, 24 hours, 41.67 μM): −33.64%
Cell death #1 (%) (MCF7, 24 hours, 125.00 μM): −13.51%
Cell death #2 (%) (MCF7, 24 hours, 125.00 μM): −8.13%
Cell death #3 (%) (MCF7, 24 hours, 125.00 μM): 7.64%
Cell death (%) MEAN (MCF7, 24 hours, 125.00 μM): −4.66%
Cell death #1 (%) (MCF7, 72 hours, 0.06 μM): −30.40%
Cell death #2 (%) (MCF7, 72 hours, 0.06 μM): −23.70%
Cell death #3 (%) (MCF7, 72 hours, 0.06 μM): −42.46%
Cell death (%) MEAN (MCF7, 72 hours, 0.06 μM): −32.19%
Cell death #1 (%) (MCF7, 72 hours, 0.17 μM): −67.59%
Cell death #2 (%) (MCF7, 72 hours, 0.17 μM): −62.23%
Cell death #3 (%) (MCF7, 72 hours, 0.17 μM): −65.91%
Cell death (%) MEAN (MCF7, 72 hours, 0.17 μM): −65.24%
Cell death #1 (%) (MCF7, 72 hours, 0.51 μM): −66.25%
Cell death #2 (%) (MCF7, 72 hours, 0.51 μM): −61.22%
Cell death #3 (%) (MCF7, 72 hours, 0.51 μM): −61.89%
Cell death (%) MEAN (MCF7, 72 hours, 0.51 μM): −63.12%
Cell death #1 (%) (MCF7, 72 hours, 1.54 μM): −70.27%
Cell death #2 (%) (MCF7, 72 hours, 1.54 μM): −54.19%
Cell death #3 (%) (MCF7, 72 hours, 1.54 μM): −60.89%
Cell death (%) MEAN (MCF7, 72 hours, 1.54 μM): −61.78%
Cell death #1 (%) (MCF7, 72 hours, 4.63 μM): −53.85%
Cell death #2 (%) (MCF7, 72 hours, 4.63 μM): −66.92%
Cell death #3 (%) (MCF7, 72 hours, 4.63 μM): −69.26%
Cell death (%) MEAN (MCF7, 72 hours, 4.63 μM): −63.34%
Cell death #1 (%) (MCF7, 72 hours, 13.89 μM): −48.83%
Cell death #2 (%) (MCF7, 72 hours, 13.89 μM): −38.44%
Cell death #3 (%) (MCF7, 72 hours, 13.89 μM): −39.11%
Cell death (%) MEAN (MCF7, 72 hours, 13.89 μM): −42.13%
Cell death #1 (%) (MCF7, 72 hours, 41.67 μM): −22.36%
Cell death #2 (%) (MCF7, 72 hours, 41.67 μM): −24.04%
Cell death #3 (%) (MCF7, 72 hours, 41.67 μM): −22.70%
Cell death (%) MEAN (MCF7, 72 hours, 41.67 μM): −23.03%
Cell death #1 (%) (MCF7, 72 hours, 125.00 μM): 88.19%
Cell death #2 (%) (MCF7, 72 hours, 125.00 μM): 90.54%
Cell death #3 (%) (MCF7, 72 hours, 125.00 μM): 89.20%
Cell death (%) MEAN (MCF7, 72 hours, 125.00 μM): 89.31%
